# US12246007B2, “Liquid bendamustine pharmaceutical compositions” (HOSPIRA AUSTRALIA PTY LTD, priority 2018, dated 2025)
# Structures can show the parent of a compound that is named as a salt. Where two headings read alike, the source gives them in different places.
# Experiment: Solubility of bendamustine HCl in organic solvents (T0 assay after overnight rolling and filtration)
# Type: physicochemical
# Description: An initial study was performed to assess bendamustine HCl solubility and brief stability in various organic solvents. Amounts of approximately 415.4 mg bendamustine HCl API (active pharmaceutical ingredient) were weighed into 4 mL amber glass vials. 2 mL of each indicated test solvent was added to two of each of the vials. One of each set of two vials containing the same solvent was placed on a sample roller at 2-8° C., and the other vial in each set was placed on a sample roller at laboratory temperature overnight. The following day, the solution from each vial was filtered through a Pall, 0.2 μm Fluorodyne II (Hydrophilic modified PVDF) syringe filter into a fresh 4 mL amber glass vial.
smiles,measurement,setting,value
"Cn1c(CCCC(=O)O)nc2cc(N(CCCl)CCCl)ccc21 [Bendamustine HCl, 1H-benzimidazole-2-butanoic acid, 5-[bis(2-chloroethyl)amino]-1-methyl, monohydrochloride]",solubility,"2 °C, organic solvent or mixture, thermodynamic from solid, 1-methyl-2-pyrrolidinone, 2-8° C., read-out: Solubility",181 mg/mL
same,solubility,"2 °C, organic solvent or mixture, thermodynamic from solid, Absolute Ethanol, 2-8° C., read-out: Solubility",52.1 mg/mL
same,solubility,"2 °C, organic solvent or mixture, thermodynamic from solid, Benzyl alcohol, 2-8° C., read-out: Solubility",177 mg/mL
same,solubility,"2 °C, organic solvent or mixture, thermodynamic from solid, Dimethyl acetamide (EP)-Finar, 2-8° C., read-out: Solubility",180 mg/mL
same,solubility,"2 °C, organic solvent or mixture, thermodynamic from solid, Dimethyl acetamide (EP)-Panreac, 2-8° C., read-out: Solubility",182 mg/mL
same,solubility,"2 °C, organic solvent or mixture, thermodynamic from solid, Dimethyl acetamide (high purity)-Finar, 2-8° C., read-out: Solubility",178 mg/mL
same,solubility,"2 °C, organic solvent or mixture, thermodynamic from solid, Dimethyl sulfoxide, 2-8° C., read-out: Solubility",182 mg/mL
same,solubility,"2 °C, organic solvent or mixture, thermodynamic from solid, PEG 300, 2-8° C., read-out: Solubility",60.2 mg/mL
same,solubility,"2 °C, organic solvent or mixture, thermodynamic from solid, PEG 400, 2-8° C., read-out: Solubility",32.8 mg/mL
same,solubility,"2 °C, organic solvent or mixture, thermodynamic from solid, Propylene glycol (USP)-Croda, 2-8° C., read-out: Solubility",154 mg/mL
same,solubility,"2 °C, organic solvent or mixture, thermodynamic from solid, Propylene glycol (USP)-Dow, 2-8° C., read-out: Solubility",154 mg/mL
same,solubility,"2 °C, organic solvent or mixture, thermodynamic from solid, Propylene glycol (USP)-Merck, 2-8° C., read-out: Solubility",159 mg/mL
same,solubility,"2 °C, organic solvent or mixture, thermodynamic from solid, Propylene glycol, 2-8° C., read-out: bendamustine HCl solubility",~155 mg/mL
same,solubility,"Isopropyl alcohol, 2-8° C.",4.5 mg/mL
same,solubility,"PEG 300, organic solvent or mixture, thermodynamic from solid, read-out: bendamustine HCl solubility",~60 mg/mL
same,solubility,"PEG 400, organic solvent or mixture, thermodynamic from solid, read-out: bendamustine HCl solubility",~30 mg/mL
same,solubility,"Propylene glycol (USP)-Croda, 23° C.",170.3 mg/mL
same,solubility,"ethanol, organic solvent or mixture, thermodynamic from solid, read-out: bendamustine HCl solubility",50 to 60 mg/mL
same,solubility,"isopropyl alcohol, organic solvent or mixture, thermodynamic from solid, read-out: bendamustine HCl solubility",~5 mg/mL
same,solubility,"organic solvent or mixture, thermodynamic from solid, 1-methyl-2-pyrrolidinone, 23° C., read-out: Solubility",180 mg/mL
same,solubility,"organic solvent or mixture, thermodynamic from solid, 1-methyl-2-pyrrolidinone, both temperatures tested, API completely dissolved, read-out: bendamustine HCl solubility",> 180 mg/mL
same,solubility,"organic solvent or mixture, thermodynamic from solid, Absolute Ethanol, 23° C., read-out: Solubility",61.1 mg/mL
same,solubility,"organic solvent or mixture, thermodynamic from solid, Benzyl alcohol, 23° C., read-out: Solubility",174 mg/mL
same,solubility,"organic solvent or mixture, thermodynamic from solid, Benzyl alcohol, both temperatures tested, API completely dissolved, read-out: bendamustine HCl solubility",> 180 mg/mL
same,solubility,"organic solvent or mixture, thermodynamic from solid, Dimethyl acetamide (EP)-Finar, 23° C., read-out: Solubility",174 mg/mL
same,solubility,"organic solvent or mixture, thermodynamic from solid, Dimethyl acetamide (EP)-Panreac, 23° C., read-out: Solubility",180 mg/mL
same,solubility,"organic solvent or mixture, thermodynamic from solid, Dimethyl acetamide (high purity)-Finar, 23° C., read-out: Solubility",179 mg/mL
same,solubility,"organic solvent or mixture, thermodynamic from solid, Dimethyl sulfoxide, 23° C., read-out: Solubility",181 mg/mL
same,solubility,"organic solvent or mixture, thermodynamic from solid, Isopropyl alcohol, 23° C., read-out: Solubility",6.7 mg/mL
same,solubility,"organic solvent or mixture, thermodynamic from solid, PEG 300, 23° C., read-out: Solubility",64.5 mg/mL
same,solubility,"organic solvent or mixture, thermodynamic from solid, PEG 400, 23° C., read-out: Solubility",34.4 mg/mL
same,solubility,"organic solvent or mixture, thermodynamic from solid, Propylene glycol (USP)-Dow, 23° C., read-out: Solubility",166 mg/mL
same,solubility,"organic solvent or mixture, thermodynamic from solid, Propylene glycol (USP)-Merck, 23° C., read-out: Solubility",172 mg/mL
same,solubility,"organic solvent or mixture, thermodynamic from solid, Propylene glycol, 23° C., read-out: bendamustine HCl solubility",~170 mg/mL
same,solubility,"organic solvent or mixture, thermodynamic from solid, dimethyl acetamide, both temperatures tested, API completely dissolved, read-out: bendamustine HCl solubility",> 180 mg/mL
same,solubility,"organic solvent or mixture, thermodynamic from solid, dimethyl sulfoxide, both temperatures tested, API completely dissolved, read-out: bendamustine HCl solubility",> 180 mg/mL
